Calls of active or inactive are those of the source.
Experiments:
[1] = test system: HEK293; test: Fluorescence-based counterscreen for potentiators or agonists of NPY-Y2: cell-based high-throughput dose response assay to identify inhibitors of cyclic nucleotide gated ion channel (CNGC) activity. In this assay, the parental HEK293 cell line transfected with a cyclic-nucleotide gated ion channel (CNGC)-based cAMP sensor is used to measure inhibition of isoproterenol-induced CNGC activity by test compound.; type: functional; conditions: Homo sapiens;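 also: stimulus is 1 µM isoproterenol at EC100 plus PDE inhibitor Ro 20-1724 at 25 µM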
[2] = biological target: Neuropeptide Y receptor type 2 (Homo sapiens, UniProt P49146); test: Fluorescence-based cell-based high-throughput dose response assay for agonists of NPY-Y2. [Related pubchem assays: 1703 (Screening assay (CNGC inhibitors).), 1359 (Screening assay (NPY-Y2 potentiators or agonists).), 1304 (Screening assay (NPY-Y1 potentiators or agonists).), 1710 (Screening assay (NPY-Y2 agonists).), 1791 (Summary AID.)]; type: functional
Sequence of Neuropeptide Y receptor type 2 (P49146 whole entry): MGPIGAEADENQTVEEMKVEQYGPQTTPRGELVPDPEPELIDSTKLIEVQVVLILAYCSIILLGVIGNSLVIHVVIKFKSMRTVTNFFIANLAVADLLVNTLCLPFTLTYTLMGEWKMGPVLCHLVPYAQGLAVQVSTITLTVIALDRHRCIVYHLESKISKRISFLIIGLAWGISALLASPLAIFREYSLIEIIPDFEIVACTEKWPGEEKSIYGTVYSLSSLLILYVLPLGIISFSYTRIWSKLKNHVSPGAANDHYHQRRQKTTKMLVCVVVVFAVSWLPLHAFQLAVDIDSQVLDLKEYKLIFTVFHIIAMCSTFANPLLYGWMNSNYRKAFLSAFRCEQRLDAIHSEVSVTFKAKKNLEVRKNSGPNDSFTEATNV

[3] = biological target: Neuropeptide Y receptor type 1 (Homo sapiens, UniProt P25929); test: Fluorescence-based counterscreen for agonists of NPY-Y2: cell-based high-throughput dose response assay for agonists of NPY-Y1.; type: functional
Sequence of Neuropeptide Y receptor type 1 (P25929 whole entry): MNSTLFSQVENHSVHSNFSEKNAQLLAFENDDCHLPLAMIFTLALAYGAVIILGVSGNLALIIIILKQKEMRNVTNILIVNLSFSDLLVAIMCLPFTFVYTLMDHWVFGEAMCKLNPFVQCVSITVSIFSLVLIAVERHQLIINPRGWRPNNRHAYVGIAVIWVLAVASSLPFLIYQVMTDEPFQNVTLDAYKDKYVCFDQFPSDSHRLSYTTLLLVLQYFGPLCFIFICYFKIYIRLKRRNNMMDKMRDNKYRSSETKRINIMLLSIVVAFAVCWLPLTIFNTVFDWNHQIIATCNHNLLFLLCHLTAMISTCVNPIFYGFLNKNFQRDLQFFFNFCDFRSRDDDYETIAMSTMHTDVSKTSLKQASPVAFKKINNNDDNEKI

[4] = test system: Streptococcus sp. 'group A'; test: growth inhibition of control SK(-) GAS strain, dose response, counter-screen for streptokinase expression inhibitor project, luminescence, kanamycin, BacTiterGlo, confirmation (AID 1900); type: functional, organism-based
[5] = biological target: T1, Streptokinase A (Streptococcus pyogenes serotype M1, UniProt P10520); test: S. pyogenes streptokinase expression inhibitors, potency, dose response, plasminogen activation absorbance, OD405 (AID 1914); type: functional, Streptococcus pyogenes M1 GAS;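 also: secreted streptokinase activity via plasminogen activation per viability signal from cell pellet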
T1 sequence (P10520 whole entry): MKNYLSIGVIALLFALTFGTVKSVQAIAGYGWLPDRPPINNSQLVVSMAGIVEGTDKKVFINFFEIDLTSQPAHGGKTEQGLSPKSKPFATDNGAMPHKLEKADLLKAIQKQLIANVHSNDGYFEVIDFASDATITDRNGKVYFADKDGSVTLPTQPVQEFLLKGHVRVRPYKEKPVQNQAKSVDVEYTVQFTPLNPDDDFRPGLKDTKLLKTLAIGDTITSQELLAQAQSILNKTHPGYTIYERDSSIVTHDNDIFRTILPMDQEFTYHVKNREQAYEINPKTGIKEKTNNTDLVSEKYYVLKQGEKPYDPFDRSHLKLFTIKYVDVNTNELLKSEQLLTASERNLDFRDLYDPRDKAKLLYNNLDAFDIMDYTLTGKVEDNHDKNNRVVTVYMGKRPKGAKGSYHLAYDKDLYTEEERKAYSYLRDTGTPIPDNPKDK

[6] = biological target: G-protein coupled receptor 55 (Homo sapiens, UniProt Q9Y2T6); test: GPR55 antagonists blocking LPI-driven arrestin recruitment, primary screen, imaging, U2OS, beta-arrestin-GFP, LPI agonist (AID 2013); type: functional;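 also: antagonist potency measured as reduced agonist-driven arrestin aggregation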
Sequence of G-protein coupled receptor 55 (Q9Y2T6 whole entry): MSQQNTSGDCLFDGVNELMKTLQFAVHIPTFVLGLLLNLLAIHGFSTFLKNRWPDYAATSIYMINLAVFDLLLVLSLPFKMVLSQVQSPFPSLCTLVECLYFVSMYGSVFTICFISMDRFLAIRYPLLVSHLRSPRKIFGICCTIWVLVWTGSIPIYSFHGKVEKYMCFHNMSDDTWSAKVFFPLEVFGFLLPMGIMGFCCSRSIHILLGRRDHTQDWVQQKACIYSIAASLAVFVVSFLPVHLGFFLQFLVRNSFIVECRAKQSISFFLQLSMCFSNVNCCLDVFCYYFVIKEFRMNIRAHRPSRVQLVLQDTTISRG

[7] = biological target: T2, Kappa-type opioid receptor (Homo sapiens, UniProt P41145); type: functional
T2 sequence (P41145 whole entry): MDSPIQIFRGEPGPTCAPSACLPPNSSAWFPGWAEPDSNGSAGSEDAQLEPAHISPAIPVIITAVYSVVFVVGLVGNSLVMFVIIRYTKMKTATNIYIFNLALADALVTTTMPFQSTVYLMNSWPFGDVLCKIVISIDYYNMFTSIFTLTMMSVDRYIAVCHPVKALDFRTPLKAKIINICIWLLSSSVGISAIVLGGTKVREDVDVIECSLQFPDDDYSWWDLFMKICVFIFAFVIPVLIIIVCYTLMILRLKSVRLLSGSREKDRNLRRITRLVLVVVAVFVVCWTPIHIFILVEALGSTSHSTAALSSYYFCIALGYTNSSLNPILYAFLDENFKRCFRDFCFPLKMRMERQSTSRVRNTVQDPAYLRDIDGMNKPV

[8] = biological target: Beta-galactosidase (Escherichia coli, UniProt Q8VNN2); type: functional
Sequence of Beta-galactosidase (Q8VNN2 whole entry): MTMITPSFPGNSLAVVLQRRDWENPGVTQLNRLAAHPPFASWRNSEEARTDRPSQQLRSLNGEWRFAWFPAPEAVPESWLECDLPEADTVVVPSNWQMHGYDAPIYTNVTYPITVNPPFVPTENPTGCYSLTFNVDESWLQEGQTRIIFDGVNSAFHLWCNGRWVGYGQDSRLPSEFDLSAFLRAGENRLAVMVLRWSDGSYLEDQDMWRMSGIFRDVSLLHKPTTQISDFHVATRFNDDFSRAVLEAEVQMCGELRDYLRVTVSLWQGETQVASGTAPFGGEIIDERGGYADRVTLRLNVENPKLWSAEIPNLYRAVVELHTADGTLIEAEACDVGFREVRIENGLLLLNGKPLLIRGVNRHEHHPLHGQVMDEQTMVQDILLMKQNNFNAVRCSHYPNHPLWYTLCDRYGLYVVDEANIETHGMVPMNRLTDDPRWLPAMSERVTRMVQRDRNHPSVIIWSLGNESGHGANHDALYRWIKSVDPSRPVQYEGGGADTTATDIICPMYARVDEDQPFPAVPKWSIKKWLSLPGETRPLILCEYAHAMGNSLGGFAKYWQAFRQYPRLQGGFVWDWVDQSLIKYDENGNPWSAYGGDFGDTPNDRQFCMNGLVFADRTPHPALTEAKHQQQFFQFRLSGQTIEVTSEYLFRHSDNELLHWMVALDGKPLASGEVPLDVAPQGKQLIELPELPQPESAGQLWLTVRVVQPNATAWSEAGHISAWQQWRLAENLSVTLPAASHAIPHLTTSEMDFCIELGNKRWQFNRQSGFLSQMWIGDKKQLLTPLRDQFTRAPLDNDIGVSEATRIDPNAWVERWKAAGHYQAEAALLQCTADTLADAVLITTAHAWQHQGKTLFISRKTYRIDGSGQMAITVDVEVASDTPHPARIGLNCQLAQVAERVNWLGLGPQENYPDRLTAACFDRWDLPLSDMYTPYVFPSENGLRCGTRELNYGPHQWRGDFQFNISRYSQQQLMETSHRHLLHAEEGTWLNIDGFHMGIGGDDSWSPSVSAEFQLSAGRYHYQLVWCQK

[9] = biological target: T2, Kappa-type opioid receptor; type: functional; remark: listed apart in the source
[10] = enhancers of respiration in Yfh1-depleted yeast, dose response, Friedreich's ataxia, plus single-dose screen (AID 1465); type: functional;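 also: yeast depleted of Yfh1p frataxin homolog grown on glycerol needing respiration; WST-1 tetrazolium dye reduction as measure of cellular dehydrogenase metabolic activity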
[11] = test system: Streptococcus; test: Group A Streptococcus viability loss, dose response, counter-screen for streptokinase expression inhibitor project, luminescence, BacTiterGlo (AID 1915); type: functional, organism-based;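 also: potency for reduction of bacterial viability or growth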
[12] = biological target: Matrix metalloproteinase-14 (Homo sapiens, UniProt P50281); test: Dose Response confirmation of uHTS hits for a small molecule inhibitors of MT1-MMP activation in a fluorescence assay set 2.; type: functional
[13] = biological target: Lysosomal acid glucosylceramidase (Homo sapiens, UniProt P04062); test: Dose response cell-based high throughput screening assay to identify enhancers of beta-glucosidase activity. [Related pubchem assays: 784 ]; type: functional
Sequence of Lysosomal acid glucosylceramidase (P04062 whole entry): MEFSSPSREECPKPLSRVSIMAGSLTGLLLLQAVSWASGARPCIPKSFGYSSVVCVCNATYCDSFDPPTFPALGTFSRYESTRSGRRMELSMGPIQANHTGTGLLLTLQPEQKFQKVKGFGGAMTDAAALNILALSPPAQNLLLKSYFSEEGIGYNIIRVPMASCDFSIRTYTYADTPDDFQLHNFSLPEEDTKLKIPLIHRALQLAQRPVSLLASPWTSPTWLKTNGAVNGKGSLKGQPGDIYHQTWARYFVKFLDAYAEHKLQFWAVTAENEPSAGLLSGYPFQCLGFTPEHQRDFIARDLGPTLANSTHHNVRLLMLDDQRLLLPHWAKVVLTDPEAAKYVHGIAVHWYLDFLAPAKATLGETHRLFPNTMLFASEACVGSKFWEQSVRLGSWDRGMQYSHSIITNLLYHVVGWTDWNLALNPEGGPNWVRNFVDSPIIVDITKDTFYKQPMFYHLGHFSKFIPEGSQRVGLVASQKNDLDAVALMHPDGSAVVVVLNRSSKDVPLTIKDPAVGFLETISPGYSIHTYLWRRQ

[14] = Luminescence-based counterscreen assay for KLF5 inhibitors: dose response cell-based high throughput screening assay to identify cytotoxic compounds using the IEC-6 intestinal epithelial cell line. [Related pubchem assays: 1700 (Primary screen.), 1834 (Confirmation screen.), 1858 (Summary AID.), 1905 (Counterscreen.)]; type: functional
[15] = cytotoxicity in HEK-293T cells, dose response, cytotoxicity control for TCR NF-kB inhibitor project, luminescence, T-cell screen hits (AID 489026); type: functional, cell-based;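 also: cells exposed to compound about 14 hours before the viability readout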
[16] = Shn3 3'UTR reporter inhibitors, dose response, cell-based, Clone20 osteoblasts, firefly luciferase, cherry-picked (AID 624132); type: functional;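 also: firefly luciferase luminescence from reporter carrying the Shn3 3'UTR in osteoblasts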
[17] = HepG2 cell cytotoxicity, dose response, cytotoxicity control for Shn3 inhibitor project, CellTiter-Glo, cherry-picked (AID 624134); type: functional, cell-based
[18] = biological target: T3, Protein skinhead-1 (Caenorhabditis elegans, UniProt P34707); type: functional
T3 sequence (P34707 whole entry): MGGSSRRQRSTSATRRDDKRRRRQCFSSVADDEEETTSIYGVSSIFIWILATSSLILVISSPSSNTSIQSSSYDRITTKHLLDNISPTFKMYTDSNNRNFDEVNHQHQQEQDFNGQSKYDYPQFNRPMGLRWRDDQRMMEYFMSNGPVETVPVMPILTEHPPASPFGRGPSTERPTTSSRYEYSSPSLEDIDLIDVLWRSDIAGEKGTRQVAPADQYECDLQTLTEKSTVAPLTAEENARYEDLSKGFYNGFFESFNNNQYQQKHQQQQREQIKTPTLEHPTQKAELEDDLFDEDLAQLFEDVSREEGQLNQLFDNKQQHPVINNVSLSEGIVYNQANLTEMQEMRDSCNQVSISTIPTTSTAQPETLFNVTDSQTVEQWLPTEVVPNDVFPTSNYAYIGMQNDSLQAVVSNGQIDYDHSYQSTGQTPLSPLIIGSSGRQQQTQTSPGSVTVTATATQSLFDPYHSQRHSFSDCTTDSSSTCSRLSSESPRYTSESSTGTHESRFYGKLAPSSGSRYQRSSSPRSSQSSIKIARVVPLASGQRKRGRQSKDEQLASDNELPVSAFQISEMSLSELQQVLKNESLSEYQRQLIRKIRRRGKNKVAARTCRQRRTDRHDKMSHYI

[19] = reduction of Shn3 3'UTR firefly luciferase signal, dose response, Schnurri-3 inhibitor project, cell-based, Clone20 osteoblasts, cherry-pick, set 2 (AID 720490); type: functional;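 also: actives lower the luminescence signal as inhibitors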
[20] = biological target: Cytochrome P450 3A4 (Homo sapiens, UniProt P08684); conditions: Potency;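 also: confirmatory qHTS run detecting inhibitors and substrates of CYP3A4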
Sequence of Cytochrome P450 3A4 (P08684 whole entry): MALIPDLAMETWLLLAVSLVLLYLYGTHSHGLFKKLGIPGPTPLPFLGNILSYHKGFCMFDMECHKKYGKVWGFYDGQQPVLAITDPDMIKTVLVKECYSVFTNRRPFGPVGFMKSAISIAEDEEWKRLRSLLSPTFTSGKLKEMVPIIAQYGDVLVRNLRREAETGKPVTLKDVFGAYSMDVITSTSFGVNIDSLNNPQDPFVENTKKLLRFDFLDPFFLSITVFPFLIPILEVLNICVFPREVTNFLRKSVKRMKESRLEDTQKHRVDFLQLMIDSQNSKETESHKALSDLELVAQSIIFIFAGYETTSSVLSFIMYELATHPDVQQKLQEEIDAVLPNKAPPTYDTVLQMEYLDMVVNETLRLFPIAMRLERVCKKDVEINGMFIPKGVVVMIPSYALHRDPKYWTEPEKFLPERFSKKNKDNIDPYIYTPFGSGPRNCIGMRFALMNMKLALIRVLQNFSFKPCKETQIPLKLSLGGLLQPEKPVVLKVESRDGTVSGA

[21] = inhibitors of Bluetongue virus cytopathic effect, confirmation, arbovirus, BSR cells (AID 1250); type: functional;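 also: protection from viral cytopathic effect measured as cell viability by ATP luminescence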
[22] = biological target: Nonstructural protein 1 (Influenza A virus, UniProt Q194T2); type: functional, Influenza A virus (A/California/07/2009(H1N1))
Sequence of Nonstructural protein 1 (Q194T2 whole entry): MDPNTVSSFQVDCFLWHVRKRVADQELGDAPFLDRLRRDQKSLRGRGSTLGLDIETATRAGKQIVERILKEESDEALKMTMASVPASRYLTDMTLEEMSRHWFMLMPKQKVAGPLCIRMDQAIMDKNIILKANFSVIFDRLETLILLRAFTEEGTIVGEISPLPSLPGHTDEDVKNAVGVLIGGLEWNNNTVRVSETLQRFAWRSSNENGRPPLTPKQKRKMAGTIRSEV

[23] = test system: H9c2; test: cells; type: functional, cell-based; conditions: Rattus norvegicus, H9c2, Myocardium;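 also: confirmatory concentration-response retest of ultra-high-throughput screening hits for modulation of myocardial damage; cell death induced by hydrogen peroxide oxidative stress; compound pretreatment for 60 min then peroxide exposure for 2 h; potency is for protecting the cells against peroxide damage rather than for killing them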

With `Fc1ccc(Nc2c(-c3ccco3)nc3ccccn23)cc1` the EC50 [1] was 17.9 µM (not active), the EC50 [2] was 10.6 µM (not active) and the EC50 [3] was 6.46 µM (active).
In the case of `COc1ccccc1N=Nc1nc(-c2ccccc2)c(-c2ccccc2)[nH]1`, the EC50 [4] is reported as 1.97 µM (active), the EC50 [5] is reported as 89.6 µM (active) and the IC50 [6] is reported as 0.587 µM (active). For the same compound, the IC50 [7] was 24 µM (inactive), the EC50 [8] was 23.9 µM (active) and the IC50 [9] was greater than 32 µM. For the same compound, the EC50 [10] was > 100 µM (active), the EC50 [11] was > 150 µM (not active) and the IC50 [12] was 36.8 µM (inactive).
With `CCOC(=O)COc1ccc(-c2nnc(-c3ccccc3)o2)cc1` the EC50 [13] was > 10 µM (not active).
With `c1ccc(-c2noc(-c3ccc4ccccc4c3)n2)nc1` the IC50 [14] was 31.9 µM (not active), the IC50 [15] was > 80 µM (inactive) and the AC50 [16] was 1.98 µM (active). The AC50 [17] was 27.6 µM (active), the IC50 [18] was > 100 µM (inactive) and the AC50 [19] was 5.85 µM (active).
With `CN1C[C@@H]2C(c3ccccc3)C3(c4ccccc4)CC2(C3)[C@H]1c1ccccc1` (stereo partly drawn) the AC50 [20] was 5.01 µM (inconclusive).
With `CC(=O)Nc1ccc(C(=O)Nc2nc(-c3ccccn3)cs2)cc1` the IC50 [21] was 38 µM (active), the IC50 [22] was 7.8 µM (active) and the IC50 [23] was > 79 µM (inactive).

Reference: ChEMBL document CHEMBL1201862, “PubChem BioAssay data set” (2004)
